Data from PubChem BioAssay (NCI).
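Tested at 5 concentrations; 48 h exposure; 96-well plates; endpoints linearly interpolated, else capped at highest concentration. Definition used: TGI = concentration required for complete inhibition of growth.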

Experiments:
Experiment in all cases: NCI anticancer screen, dose series, 48 h
786-0 renal = tested on: 786-0 renal
LOX IMVI melanoma = tested on: LOX IMVI melanoma
OVCAR-8 ovarian = tested on: OVCAR-8 ovarian
RPMI-8226 leukemia = tested on: RPMI-8226 leukemia
SN12C renal = tested on: SN12C renal
SNB-19 CNS = tested on: SNB-19 CNS
T-47D breast = tested on: T-47D breast
TK-10 renal = tested on: TK-10 renal
U251 CNS = tested on: U251 CNS
NCI-H226 lung = tested on: NCI-H226 lung
RXF 393 renal = tested on: RXF 393 renal

N#Cc1ccc(OCc2nc3cc(C(F)(F)F)ccc3nc2-c2ccccc2)cc1
TGI (786-0 renal): > 100 µM | TGI (LOX IMVI melanoma): > 100 µM | TGI (OVCAR-8 ovarian): > 100 µM | TGI (RPMI-8226 leukemia): > 100 µM | TGI (SN12C renal): > 100 µM | TGI (SNB-19 CNS): > 100 µM | TGI (T-47D breast): > 100 µM | TGI (TK-10 renal): > 100 µM | TGI (U251 CNS): > 100 µM

Cc1c(NC(=S)Nc2ccc(Cl)cc2)c(=O)n(-c2ccccc2)n1C
TGI (786-0 renal): > 100 µM | TGI (LOX IMVI melanoma): > 100 µM | TGI (NCI-H226 lung): > 100 µM | TGI (RPMI-8226 leukemia): > 100 µM | TGI (RXF 393 renal): > 100 µM | TGI (SNB-19 CNS): > 100 µM | TGI (TK-10 renal): > 100 µM | TGI (U251 CNS): > 100 µM

COc1cc(COC(=O)N2CCC2C(=O)O)c([N+](=O)[O-])cc1OC (stereo unspecified)
TGI (786-0 renal): > 100 µM | TGI (NCI-H226 lung): > 100 µM | TGI (OVCAR-8 ovarian): > 100 µM | TGI (RPMI-8226 leukemia): > 100 µM | TGI (RXF 393 renal): > 100 µM | TGI (SN12C renal): > 100 µM | TGI (SNB-19 CNS): > 100 µM | TGI (T-47D breast): > 100 µM | TGI (TK-10 renal): > 100 µM | TGI (U251 CNS): > 100 µM

O=S1C2=C(Cc3ccccc3)C(Cc3ccccc3)=C1CCc1cccc(c1)CC2
TGI (786-0 renal): 28.9 µM | TGI (LOX IMVI melanoma): 28.1 µM | TGI (NCI-H226 lung): 47.8 µM | TGI (OVCAR-8 ovarian): 34 µM | TGI (RXF 393 renal): 19.7 µM | TGI (SN12C renal): 30.6 µM | TGI (SNB-19 CNS): 28.1 µM | TGI (T-47D breast): 44.8 µM | TGI (TK-10 renal): 33.7 µM | TGI (U251 CNS): 26.8 µM

COc1ccccc1N1CCN(Cn2c(=O)oc3cccnc32)CC1
TGI (786-0 renal): > 100 µM | TGI (LOX IMVI melanoma): > 100 µM | TGI (OVCAR-8 ovarian): > 100 µM | TGI (RPMI-8226 leukemia): > 100 µM | TGI (RXF 393 renal): > 100 µM | TGI (SNB-19 CNS): > 100 µM | TGI (T-47D breast): > 100 µM | TGI (TK-10 renal): > 100 µM | TGI (U251 CNS): > 100 µM

CC[C@H]1OC([C@H](O)C/C=C\C#C[Si](C)(C)C)C/C=C\C[C@H]1O[Si](C)(C)C(C)(C)C (stereo partly specified)
TGI (786-0 renal): > 100 µM | TGI (LOX IMVI melanoma): 36.3 µM | TGI (NCI-H226 lung): > 100 µM | TGI (OVCAR-8 ovarian): > 100 µM | TGI (RPMI-8226 leukemia): > 100 µM | TGI (RXF 393 renal): > 100 µM | TGI (SN12C renal): > 100 µM | TGI (SNB-19 CNS): > 100 µM | TGI (T-47D breast): > 100 µM | TGI (U251 CNS): > 100 µM

O=c1[nH]nc(Cc2ccccc2)n1Nc1ccccc1
TGI (786-0 renal): > 100 µM | TGI (LOX IMVI melanoma): > 100 µM | TGI (NCI-H226 lung): > 100 µM | TGI (OVCAR-8 ovarian): > 100 µM | TGI (RPMI-8226 leukemia): > 100 µM | TGI (SN12C renal): > 100 µM | TGI (TK-10 renal): > 100 µM | TGI (U251 CNS): > 100 µM

CC(C)=CCC/C(C)=C/CC/C(C)=C/CC/C(C)=C/CC/C(C)=C\CC/C(C)=C/CC/C(C)=C/CC/C(C)=C/Cc1cc(O)ccc1O
TGI (786-0 renal): 4.09 µM | TGI (NCI-H226 lung): 4.65 µM | TGI (OVCAR-8 ovarian): 3.42 µM | TGI (SN12C renal): > 100 µM | TGI (SNB-19 CNS): > 43.6 µM | TGI (T-47D breast): 50.1 µM | TGI (TK-10 renal): > 29.4 µM | TGI (U251 CNS): 4.06 µM

CC(C)C1OC(=O)/C=C/C=C/C=C/C=C/C=C/CC(O)CC(O)CC(O)CC(O)CC(O)CC(O)CC(O)CC(O)/C=C/C1C (stereo unspecified)
TGI (786-0 renal): > 100 µM | TGI (LOX IMVI melanoma): > 100 µM | TGI (NCI-H226 lung): > 100 µM | TGI (OVCAR-8 ovarian): > 100 µM | TGI (RPMI-8226 leukemia): > 100 µM | TGI (RXF 393 renal): > 100 µM | TGI (SN12C renal): > 100 µM | TGI (SNB-19 CNS): > 100 µM | TGI (TK-10 renal): > 100 µM | TGI (U251 CNS): > 100 µM

S=C1N=C(Cl)C2(NN1)c1ccccc1-c1ccccc12
TGI (786-0 renal): > 10 µM | TGI (LOX IMVI melanoma): > 10 µM | TGI (NCI-H226 lung): > 10 µM | TGI (OVCAR-8 ovarian): > 10 µM | TGI (RPMI-8226 leukemia): > 10 µM | TGI (SN12C renal): > 10 µM | TGI (T-47D breast): > 10 µM | TGI (TK-10 renal): > 10 µM | TGI (U251 CNS): > 10 µM

CCC1C(c2cc(OC)c(OC)c(OC)c2)c2cc3c(cc2OC1N1CCOCC1)OCO3 (stereo unspecified)
TGI (786-0 renal): 28.8 µM | TGI (LOX IMVI melanoma): 10.5 µM | TGI (NCI-H226 lung): 27.6 µM | TGI (OVCAR-8 ovarian): 17.6 µM | TGI (SN12C renal): 28.6 µM | TGI (SNB-19 CNS): 25 µM | TGI (T-47D breast): 61.8 µM

N#CC1(C#N)NC(c2ccsc2)C(C#N)(C#N)NC1c1ccsc1 (stereo unspecified)
TGI (786-0 renal): > 100 µM | TGI (LOX IMVI melanoma): > 100 µM | TGI (NCI-H226 lung): > 100 µM | TGI (OVCAR-8 ovarian): > 100 µM | TGI (RPMI-8226 leukemia): > 100 µM | TGI (SN12C renal): > 100 µM | TGI (SNB-19 CNS): > 100 µM | TGI (TK-10 renal): > 100 µM | TGI (U251 CNS): > 100 µM

COC(=O)/C=c1/c2ccccc2n2nc3ccccc3c12
TGI (786-0 renal): > 100 µM | TGI (LOX IMVI melanoma): > 100 µM | TGI (OVCAR-8 ovarian): > 100 µM | TGI (RPMI-8226 leukemia): > 100 µM | TGI (RXF 393 renal): > 100 µM | TGI (SN12C renal): > 100 µM | TGI (SNB-19 CNS): > 100 µM | TGI (T-47D breast): > 100 µM | TGI (TK-10 renal): > 100 µM | TGI (U251 CNS): > 100 µM

C#C[C@]1(O)CC[C@H]2[C@@H]3CCc4cc(OC(=O)c5cccc6cc7ccccc7nc56)ccc4[C@H]3CC[C@@]21C
TGI (786-0 renal): 96.4 µM | TGI (LOX IMVI melanoma): 66 µM | TGI (NCI-H226 lung): > 100 µM | TGI (OVCAR-8 ovarian): > 100 µM | TGI (RPMI-8226 leukemia): > 100 µM | TGI (RXF 393 renal): > 100 µM | TGI (SN12C renal): 54.7 µM | TGI (SNB-19 CNS): > 100 µM | TGI (T-47D breast): 34 µM | TGI (U251 CNS): > 100 µM

C[C@H](O)C1CC(Cn2nnc3c(N)ncnc32)C1(C)C (stereo partly specified)
TGI (786-0 renal): > 100 µM | TGI (LOX IMVI melanoma): > 100 µM | TGI (NCI-H226 lung): > 100 µM | TGI (RXF 393 renal): > 100 µM | TGI (SN12C renal): > 100 µM | TGI (SNB-19 CNS): > 100 µM | TGI (T-47D breast): > 100 µM | TGI (TK-10 renal): > 100 µM | TGI (U251 CNS): > 100 µM

O=[N+]([O-])c1cccnc1NCC1(CO)CC(Cc2ccccc2)C1 (stereo unspecified)
TGI (786-0 renal): > 100 µM | TGI (LOX IMVI melanoma): > 100 µM | TGI (NCI-H226 lung): > 100 µM | TGI (OVCAR-8 ovarian): > 100 µM | TGI (RPMI-8226 leukemia): > 100 µM | TGI (RXF 393 renal): > 100 µM | TGI (SN12C renal): > 100 µM | TGI (T-47D breast): > 100 µM | TGI (TK-10 renal): > 100 µM | TGI (U251 CNS): > 100 µM

Cc1cn(Cc2ccccc2CCl)c(=O)[nH]c1=O
TGI (786-0 renal): 30.2 µM | TGI (OVCAR-8 ovarian): 29.2 µM | TGI (RXF 393 renal): 23.9 µM | TGI (SN12C renal): 32.7 µM | TGI (SNB-19 CNS): 25.9 µM | TGI (T-47D breast): 44.8 µM | TGI (TK-10 renal): 33.8 µM | TGI (U251 CNS): 21.4 µM

COc1cc2c(c(OC)c1OC)-c1ccc(SC)cc1[C@H](OC(=O)c1ccccc1)CC2
TGI (786-0 renal): > 100 µM | TGI (LOX IMVI melanoma): > 100 µM | TGI (NCI-H226 lung): 0.634 µM | TGI (OVCAR-8 ovarian): > 100 µM | TGI (RXF 393 renal): 0.452 µM | TGI (SN12C renal): > 78.2 µM | TGI (T-47D breast): > 100 µM | TGI (TK-10 renal): > 100 µM

O=[N+]([O-])c1cn[n+]([O-])c2ccccc12
TGI (786-0 renal): 12.3 µM | TGI (LOX IMVI melanoma): 20.9 µM | TGI (NCI-H226 lung): 27.3 µM | TGI (OVCAR-8 ovarian): 11.6 µM | TGI (RPMI-8226 leukemia): 7.37 µM | TGI (SN12C renal): 21.5 µM | TGI (SNB-19 CNS): 25.2 µM | TGI (T-47D breast): 18 µM | TGI (TK-10 renal): 25.8 µM | TGI (U251 CNS): 15 µM

CCOC(=O)CCC(NC(=O)c1ccc(N2CCN(c3c(C)nc(N)nc3N)CC2)cc1)C(=O)OCC (stereo unspecified)
TGI (786-0 renal): > 100 µM | TGI (LOX IMVI melanoma): > 100 µM | TGI (NCI-H226 lung): > 100 µM | TGI (OVCAR-8 ovarian): > 100 µM | TGI (RPMI-8226 leukemia): 6.94 µM | TGI (SN12C renal): > 100 µM | TGI (SNB-19 CNS): > 24.7 µM | TGI (T-47D breast): > 100 µM | TGI (TK-10 renal): > 100 µM | TGI (U251 CNS): > 100 µM

CC(=O)Nc1ccc2[nH]c(-c3cccc(F)c3)cc(=O)c2c1
TGI (786-0 renal): > 100 µM | TGI (NCI-H226 lung): > 75.9 µM | TGI (OVCAR-8 ovarian): > 31.6 µM | TGI (RPMI-8226 leukemia): > 59.8 µM | TGI (SN12C renal): > 100 µM | TGI (SNB-19 CNS): > 100 µM | TGI (T-47D breast): > 100 µM | TGI (TK-10 renal): > 100 µM | TGI (U251 CNS): 16.3 µM

COc1ccc2c(c1)c1c(n2CCN2CCCCC2)-c2ccccc2CC1
TGI (786-0 renal): 34.5 µM | TGI (LOX IMVI melanoma): 40.4 µM | TGI (NCI-H226 lung): 19.3 µM | TGI (OVCAR-8 ovarian): 29 µM | TGI (RPMI-8226 leukemia): 56.1 µM | TGI (SN12C renal): 33.5 µM | TGI (SNB-19 CNS): 46.9 µM | TGI (T-47D breast): 35.6 µM | TGI (TK-10 renal): 27.6 µM | TGI (U251 CNS): 30.5 µM
